Measured values: patent US4006144A, “10,11-Dihydro-dibenzo(b,f)thiepin derivatives” (Hoffmann-La Roche Inc., priority 1972, dated 1977)
Structures can show the parent of a compound that is named as a salt. Where two headings read alike, the source gives them in different places.

Assays:
Format in all cases: in vivo
[1] = tested on: mice; assay: Rotating rod test; conditions: for ED50: Mus musculus, po, read-out: ED50 (dose which reduces the holding time to 50%)
Experimental: In the rotating rod test, the ability of mice to achieve a coordinated, motoric performance is tested. After the peroral administration of the test substance, mice are placed on a horizontal, slowly rotating rod and the time until the mice fall off the rod is measured.

[2] = tested on: homovanillic acid (HVA); assay: Determination of homovanillic acid (turnover of dopamine in the basal ganglia); conditions: rats; for Increase of HVA: 2 hours, untreated rats fixed at 100%
Experimental: Rats are injected with the derivative to be tested 2 hours before they are killed.
Homovanillic acid is extracted from the supernatant of the brain homogenate into butyl acetate and later into an aqueous solution and oxidised with potassium ferricyanide to a fluorescent dimer. From the increased concentration of homovanillic acid (HVA) it can be concluded that the derivative under investigation acts like chlorpromazine, i.e. it increases the turnover of dopamine in the basal ganglia. The homovanillic acid titre in untreated rats is arbitrarily fixed at 100%.

[3] = tested on: rats; assay: Pole climbing test; conditions: for Quotient ED10 (Blocking of the unconditioned reaction)/ED50 (Blocking of the conditioned reaction): higher = greater selectivity of neuroleptic action
Experimental: This test gives information about behaviour reactions of rats. Rats are trained to avoid, by climbing up a vertical pole in the test chamber, an electrical impulse (unconditioned impulse) released via the wire-latticed floor some seconds after an acoustic signal (conditioned impulse).
The blocking of the conditioned reaction is determined by the parameter ED50 (mg/kg p.o.); the blocking of the unconditioned reaction is determined by the parameter ED10 (mg/kg p.o.).
The parameter ED50 (blocking of the conditioned reaction) gives a measure of the neuroleptic activity strength of the test substance. The quotient ED10 (blocking of the unconditioned reaction)/ED50 (blocking of the conditioned reaction) gives a measure of the quality of action of the test substance, in that with increasing quotient a greater selectivity of the neuroleptic action (slighter neurotoxic side-effects) is present.

[4] = Cataleptic action in rats (homolateral extremities crossed position); conditions: rat, in vivo, ip
Experimental: (§1) The following products were investigated:
(§2) The amimals are considered to be cataleptic when the homolateral extremities remain for at least 10 seconds in the crossed position. The number of cataleptic animals is noted every 30 minutes for 6 hours.

[5] = tested on: rats; assay: as above; conditions: rats, intraperitoneal
Experimental: as §1, §2

Structure (SMILES) | ED50 [1] [mg/kg] | Increase of HVA ([2]; 20 mg/kg p.o.) [%] | Quotient ED10 (Blocking of the unconditioned reaction)/ED50 (Blocking of the conditioned reaction) ([3]; p.o.) | ED50 ([1]; mice, peroral) [mg/kg] | action in rotating rod test (in words) ([1]; mice, peroral) | Increase of HVA ([2]; 50 mg/kg p.o.) [%] | activity in HVA test compared with chlorpromazine (in words) [2] | TD50 at 6 h [4] [mg/kg] | cataleptic action in comparison to chlorpromazine (in words) [5] | ED50 ([3]; Rattus norvegicus, po, read-out: ED50 (Blocking of the conditioned reaction)) [mg/kg] | neuroleptic action and quality (selectivity) compared with chlorpromazine (in words) ([3]; p.o.) | TD50 at 6 h ([4]; rats, intraperitoneal, noted every 30 minutes for 6 hours, read-out: ED50 (dose at which 50% of the animals show catalepsy)) [mg/kg]
CN(C)CCCN1c2ccccc2Sc2ccc(Cl)cc21 [Chlorpromazine, reference compound] | 5 | 321 | 3.5 | – | – | – | – | – | – | – | – | –
O=C1OCCN1CCN1CCN(C2Cc3cc(Cl)ccc3Sc3ccccc32)CC1 (stereo not shown) [Product A, 3-[2-[4-(2-chloro-10,11-dihydro-dibenzo[b,f]thiepin-10-yl)-1-piperazinyl]-ethyl]-2-oxozolidinone maleate] | – | – | 4.2 | 7.9 | strong action | 340 | almost equalizes that of chloropromazine | > 100 | no cataleptic action or only a slight cataleptic action | 10 | strong neuroleptic action but also a quality (selectivity) of the neuroleptic action, both of which somewhat exceed that of chlorpromazine | –
Cc1ccc2c(c1)CC(N1CCN(CCN3CCOC3=O)CC1)c1ccccc1S2.O=C(O)/C=C\C(=O)O (stereo not shown) [Product B, 3-[2-[4-(10,11-dihydro-2-methyl-dibenzo[b,f]thiepin-10-yl)-1-piperazinyl]-ethyl]-2-oxazolidinone maleate] | – | – | – | – | – | 255 | almost equalizes that of chloropromazine | – | no cataleptic action or only a slight cataleptic action | – | – | 70
